# According to paper PMC7802075 (ACS Infectious Diseases, 2020):
# Target: T1, LmjIPCS (inositol phosphorylceramide synthase from L. major) (Leishmania major, UniProt E9AFX2)
# T1 sequence (E9AFX2 1-338): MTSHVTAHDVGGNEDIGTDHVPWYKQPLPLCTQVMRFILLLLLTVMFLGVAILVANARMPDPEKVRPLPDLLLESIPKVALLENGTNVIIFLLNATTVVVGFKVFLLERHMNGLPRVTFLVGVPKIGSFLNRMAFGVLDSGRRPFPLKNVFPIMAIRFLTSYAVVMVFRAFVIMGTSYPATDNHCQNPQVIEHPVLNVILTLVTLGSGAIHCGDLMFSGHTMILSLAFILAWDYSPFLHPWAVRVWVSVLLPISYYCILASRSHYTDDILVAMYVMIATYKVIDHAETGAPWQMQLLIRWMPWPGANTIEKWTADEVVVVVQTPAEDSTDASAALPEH
# Assay: biochemical
# Format: biochemical
# Parameters: inhibition: dose or concentration left out as unconfirmed
# Conditions: not given
row,Structure (SMILES),20mM inhibition LmjIPCS [%]
1,CC(C)(Oc1ccc(Cl)cc1)C(=O)O [CLOFIBRIC ACID],56
2,CNCCCN1c2ccccc2CCc2ccccc21 [DESIPRAMINE],64
3,CC(C)=CC1C(C(=O)OCc2cccc(Oc3ccccc3)c2)C1(C)C (centres unmarked) [PHENOTHRIN],39
4,CC(=O)Oc1ccc(C(c2ccc(OC(C)=O)cc2)c2ccccn2)cc1 [BISACODYL],48
5,CCCc1ncc(C[n+]2ccccc2C)c(N)n1 [AMPROLIUM],44
6,CC(=O)OCC1=C(C(=O)O)N2C(=O)[C@@H](NC(=O)Cc3cccs3)[C@H]2SC1 [CEPHALOTHIN],55
7,CCN(CCCCOC(=O)c1ccc(OC)c(OC)c1)C(C)Cc1ccc(OC)cc1 (centres unmarked) [MEBEVERINE],54
8,N=C(NCCC[C@H](N)C(=O)O)N[N+](=O)[O-] [N (g)-NITRO-L-ARGININE],1.68
9,NS(=O)(=O)c1cc2c(cc1Cl)N=CNS2(=O)=O [CHLOROTHIAZIDE],51
10,CCN(CC)CCCC(C)Nc1c2ccc(Cl)cc2nc2ccc(OC)cc12 (centres unmarked) [QUINACRINE],59
11,CC1=C(O)C(=O)C=C2C1=CC=C1[C@@]2(C)CC[C@@]2(C)[C@@H]3C[C@](C)(C(=O)O)CC[C@]3(C)CC[C@]12C [CELASTROL],54
12,C=C[C@H]1C[N@@]2CC[C@H]1C[C@@H]2[C@@H](O)c1ccnc2ccc(OC)cc12 [QUINIDINE],55
13,O=C(/C=C/c1ccc(O)c(O)c1)O[C@H](Cc1ccc(O)c(O)c1)C(=O)O [ROSMARINIC ACID],58

# Same assay, conditions: NINDS set screen, compound at 20mM (so in the source)
row,Structure (SMILES),20mM inhibition LmjIPCS [%]
1,Cc1c(OCC(F)(F)F)ccnc1C[S+]([O-])c1nc2ccccc2[nH]1 (centres unmarked) [LANSOPRAZOLE],23

# Same assay, conditions: NINDS set screen, single concentration 20mM as printed
row,Structure (SMILES),20mM inhibition LmjIPCS [%]
1,Cc1c(N(C)CS(=O)(=O)[O-])c(=O)n(-c2ccccc2)n1C.[Na+] [DIPYRONE],-7.57
2,O=C(O)CN(CCN(CC(=O)O)CC(=O)O)CC(=O)O.[Na+].[Na+].[Na+] [TRISODIUM ETHYLENEDIAMINE TETRACETATE],-4.23

# Same assay, conditions: NINDS set screen, single concentration printed as 20mM
row,Structure (SMILES),20mM inhibition LmjIPCS [%]
1,CC12CCC3c4ccc(OCc5ccccc5)cc4CCC3C1C[C@@H](O)[C@@H]2O (some centres unmarked) [ESTRIOL BENZYL ETHER],42
2,Nc1nc(N)c2nc(-c3ccccc3)c(N)nc2n1,36
3,CC[C@H](c1ccc(O)cc1)[C@@H](CC)c1ccc(O)cc1 [HEXESTROL],34
4,CN(C)CCOC(c1ccc(Cl)cc1)c1ccccn1 (centres unmarked) [CARBINOXAMINE],36
5,O=C1c2c(O)ccc(O)c2C(=O)c2c(NCCNCCO)ccc(NCCNCCO)c21 [MITOXANTHRONE],63

# Same assay, conditions: NINDS set screen; read-out: inhibition LmjIPCS
row,Structure (SMILES),inhibition [%]
1,C=CCSCC1Nc2cc(Cl)c(S(N)(=O)=O)cc2S(=O)(=O)N1 (centres unmarked) [ALTHIAZIDE],11
2,CC1=NCCc2c1[nH]c1cc(O)ccc21 [HARMALOL],17
3,O=C1[C@H](CC[C@H](O)c2ccc(F)cc2)[C@@H](c2ccc(O)cc2)N1c1ccc(F)cc1 [EZETIMIBE],23
4,CCCCCCCC/C=C/CCCCCCCCOP(=O)([O-])OCC[N+](C)(C)C [ELAIDYLPHOSPHOCHOLINE],-7
5,CN1CCN(CC/C=C2/c3ccccc3Sc3ccc(S(=O)(=O)N(C)C)cc32)CC1 [THIOTHIXENE],-24
6,C[C@H]1C[C@@H]2[C@H]([C@@H](O)C[C@@]3(C)[C@H]2CC[C@]3(O)C(=O)CO)[C@@]2(C)C=CC(=O)C=C12 [METHYLPREDNISOLONE],16
7,COC(=O)/C(=C1/OC(=O)C(c2ccccc2)=C1O)c1ccccc1 [VULPINIC ACID],13

# Same assay, conditions: read-out: 20mM inhibition LmjIPCS
row,Structure (SMILES),inhibition at 20000 µM [%]
1,CC(=O)Oc1c(C)c(C)c2c(c1C)CCC(C)(CCC[C@H](C)CCC[C@H](C)CCCC(C)C)O2 (stereo partly drawn) [alpha-TOCOPHERYL ACETATE],-0.425
2,Oc1ccc(O)cc1 [HYDROQUINONE],-2.33
3,CCc1cc(C(N)=S)ccn1 [ETHIONAMIDE],-5.39
4,C=C(C)[C@H]1CN[C@H](C(=O)O)[C@H]1CC(=O)O [KAINIC ACID],14
5,Cc1ccc(C)c(OCCCC(C)(C)C(=O)O)c1 [GEMFIBROZIL],-1.79
6,COc1cc([C@@H]2c3cc4c(cc3[C@H](O)[C@H]3COC(=O)[C@H]23)OCO4)cc(OC)c1OC [PODOFILOX],21
7,CN(N=O)C(=O)N[C@H]1C(O)O[C@H](CO)[C@@H](O)[C@@H]1O (mixture of isomers) [STREPTOZOSIN],16
8,O=C(O)CCC(=O)c1ccc(-c2ccccc2)cc1 [FENBUFEN],12
9,CC(=O)N[C@@H](Cc1c[nH]c2ccccc12)C(=O)O [ACETYLTRYPTOPHAN],-17
10,Cc1cc(CC(=O)O)n(C)c1C(=O)c1ccc(Cl)cc1 [ZOMEPIRAC],10
11,CC[C@@H](C(=O)[C@@H](C)[C@@H](O)[C@H](C)[C@@H]1O[C@@H]([C@@H](CC)C(=O)O)CC[C@@H]1C)[C@H]1O[C@]2(C=C[C@@H](O)[C@]3(CC[C@@](C)([C@H]4CC[C@](O)(CC)[C@H](C)O4)O3)O2)[C@H](C)C[C@@H]1C [SALINOMYCIN],29
12,CCCCCCNC(=O)n1cc(F)c(=O)[nH]c1=O [CARMOFUR],14
13,C=CC1=C(C(=O)O)N2C(=O)[C@@H](NC(=O)/C(=N\O)c3csc(N)n3)[C@H]2SC1,9
14,O=C(/C=C/C=C/c1ccc2c(c1)OCO2)N1CCCCC1 [PIPERINE],13
15,Nc1nc(/C(=C/CC(=O)O)C(=O)N[C@@H]2C(=O)N3C(C(=O)O)=CCS[C@H]23)cs1 [CEFTIBUTEN],18
16,CC1(C)[C@@H](O)CC[C@]2(C)[C@H]3C(=O)C=C4[C@H]5C[C@@](C)(C(=O)O)CC[C@]5(C)CC[C@@]4(C)[C@]3(C)CC[C@@H]12,7
17,CC(C)C(=O)Nc1ccc([N+](=O)[O-])c(C(F)(F)F)c1 [FLUTAMIDE],-1.8
18,CC[C@@]1(O)C[C@H](O)c2c(cc3c(c2O)C(=O)c2c(O)ccc(O)c2C3=O)[C@H]1C(=O)OC [RUTILANTINONE],27
19,Cn1nnnc1SCC1=C(C(=O)O)N2C(=O)[C@@H](NC(=O)[C@H](O)c3ccccc3)[C@H]2SC1 [CEFAMANDOLE],10
20,CN[C@@H](C)[C@@H](O)c1ccccc1 [PSEUDOEPHEDRINE],2.14
21,Cc1onc(-c2ccccc2)c1C(=O)N[C@@H]1C(=O)N2[C@@H]1SC(C)(C)[C@@H]2C(=O)O [OXACILLIN],16
22,CC(COc1ccccc1)N(CCCl)Cc1ccccc1 (centres unmarked) [PHENOXYBENZAMINE],31
23,CC(=O)OCC(=O)[C@@]1(O)[C@H](C)C[C@H]2[C@@H]3CCC4=CC(=O)C=C[C@]4(C)[C@@]3(F)[C@@H](O)C[C@@]21C [DEXAMETHASONE ACETATE],-3.4
24,OC[C@@H]1CCCN2CCCC[C@H]12 [LUPININE],11
25,Oc1noc2c1CCNC2 [GABOXADOL],-24
26,CC(N/C(=N\C#N)Nc1ccncc1)C(C)(C)C (centres unmarked),12
27,Cc1onc(-c2c(Cl)cccc2Cl)c1C(=O)N[C@@H]1C(=O)N2[C@@H]1SC(C)(C)[C@@H]2C(=O)O [DICLOXACILLIN],2.55
28,CCn1cc(C(=O)O)c(=O)c2ccc(C)nc21 [NALIDIXIC ACID],-11

# Same assay, conditions: read-out: inhibition LmjIPCS
row,Structure (SMILES),inhibition [%]
1,O=C(/C=C/c1ccc(O)cc1)c1ccc(O)cc1O [ISOLIQUIRITIGENIN],11
2,Oc1ccc(/C=C/c2cc(O)cc(O)c2)cc1 [RESVERATROL],-9
3,Cc1c(C(N)=O)cc([N+](=O)[O-])cc1[N+](=O)[O-] [DINITOLMIDE],5
4,CC(C)[N+](C)(CCC(C(N)=O)(c1ccccc1)c1ccccc1)C(C)C [ISOPROPAMIDE],11
5,NS(=O)(=O)c1cc2c(cc1Cl)NC(C(Cl)Cl)NS2(=O)=O (centres unmarked) [TRICHLORMETHIAZIDE],20
6,C1CCC(C(CC2CCCCN2)C2CCCCC2)CC1 (centres unmarked) [PERHEXILINE],12
7,C[C@H](CCC(=O)O)[C@H]1CC[C@H]2[C@@H]3[C@@H](O)C[C@@H]4C[C@H](O)CC[C@]4(C)[C@H]3CC[C@]12C [URSODIOL],8
8,OCCN1CCN(CCCN2c3ccccc3Sc3ccc(Cl)cc32)CC1 [PERPHENAZINE],0.226
9,O=c1cc(-c2ccccc2)oc2cc(O)c(O)c(O)c12 [BAICALEIN],32
10,CC1Cc2ccccc2N1NC(=O)c1ccc(Cl)c(S(N)(=O)=O)c1 (centres unmarked) [INDAPAMIDE],5
11,CCCCc1nc(Cl)c(CO)n1Cc1ccc(-c2ccccc2-c2nn[nH]n2)cc1 [LOSARTAN],-2.81
12,O=c1[nH]cc(F)c(=O)[nH]1 [FLUOROURACIL],4.66
13,COC(=O)Nc1nc2ccc(Sc3ccccc3)cc2[nH]1 [FENBENDAZOLE],20

# Same assay, conditions: screening of NINDS set, sheet Screen 1; read-out: inhibition LmjIPCS
row,Structure (SMILES),inhibition [%]
1,CCCc1cc(C(N)=S)ccn1 [PROTHIONAMIDE],9
2,CC(C)[C@H]1CC[C@H](C(=O)N[C@H](Cc2ccccc2)C(=O)O)CC1 [NATEGLINIDE],7
3,CCCOc1ccccc1-c1nc2nn[nH]c2c(=O)[nH]1 [ZAPRINAST],7
4,CO/N=C(\C(=O)N[C@@H]1C(=O)N2C(C(=O)O)=C(CSc3nc(=O)c(=O)[nH]n3C)CS[C@H]12)c1csc(N)n1 [CEFTRIAXONE],5.34

# Same assay, conditions: single concentration 20mM as printed; screening of NINDS set, sheet Screen 1
row,Structure (SMILES),20mM inhibition LmjIPCS [%]
1,CC(=O)OCC(=O)[C@@]1(O)CC[C@H]2[C@@H]3C[C@H](C)C4=CC(=O)C=C[C@]4(C)[C@H]3[C@@H](O)C[C@@]21C [6alpha-METHYLPREDNISOLONE ACETATE],9
